Earlier results, collected in US20140066504A1, “ANALOGS AND PRODRUGS OF BUMETANIDE; COMPOSITIONS AND METHODS OF USE” (priority 2012, published 2014).

How the values were obtained:
[1] = system: rat models of anxiety
[2] = system: rats
[3] = system: audiogenic seizure-prone rats; conditions: audiogenic seizure-prone animals
[4] = system: primate cortex; conditions: relative to furosemide
[5] = target: T1, NKCC1 (Homo sapiens, UniProt P55011); conditions: for affinity for NKCC1 over KCC2: selectivity
T1 sequence (P55011 1-1212): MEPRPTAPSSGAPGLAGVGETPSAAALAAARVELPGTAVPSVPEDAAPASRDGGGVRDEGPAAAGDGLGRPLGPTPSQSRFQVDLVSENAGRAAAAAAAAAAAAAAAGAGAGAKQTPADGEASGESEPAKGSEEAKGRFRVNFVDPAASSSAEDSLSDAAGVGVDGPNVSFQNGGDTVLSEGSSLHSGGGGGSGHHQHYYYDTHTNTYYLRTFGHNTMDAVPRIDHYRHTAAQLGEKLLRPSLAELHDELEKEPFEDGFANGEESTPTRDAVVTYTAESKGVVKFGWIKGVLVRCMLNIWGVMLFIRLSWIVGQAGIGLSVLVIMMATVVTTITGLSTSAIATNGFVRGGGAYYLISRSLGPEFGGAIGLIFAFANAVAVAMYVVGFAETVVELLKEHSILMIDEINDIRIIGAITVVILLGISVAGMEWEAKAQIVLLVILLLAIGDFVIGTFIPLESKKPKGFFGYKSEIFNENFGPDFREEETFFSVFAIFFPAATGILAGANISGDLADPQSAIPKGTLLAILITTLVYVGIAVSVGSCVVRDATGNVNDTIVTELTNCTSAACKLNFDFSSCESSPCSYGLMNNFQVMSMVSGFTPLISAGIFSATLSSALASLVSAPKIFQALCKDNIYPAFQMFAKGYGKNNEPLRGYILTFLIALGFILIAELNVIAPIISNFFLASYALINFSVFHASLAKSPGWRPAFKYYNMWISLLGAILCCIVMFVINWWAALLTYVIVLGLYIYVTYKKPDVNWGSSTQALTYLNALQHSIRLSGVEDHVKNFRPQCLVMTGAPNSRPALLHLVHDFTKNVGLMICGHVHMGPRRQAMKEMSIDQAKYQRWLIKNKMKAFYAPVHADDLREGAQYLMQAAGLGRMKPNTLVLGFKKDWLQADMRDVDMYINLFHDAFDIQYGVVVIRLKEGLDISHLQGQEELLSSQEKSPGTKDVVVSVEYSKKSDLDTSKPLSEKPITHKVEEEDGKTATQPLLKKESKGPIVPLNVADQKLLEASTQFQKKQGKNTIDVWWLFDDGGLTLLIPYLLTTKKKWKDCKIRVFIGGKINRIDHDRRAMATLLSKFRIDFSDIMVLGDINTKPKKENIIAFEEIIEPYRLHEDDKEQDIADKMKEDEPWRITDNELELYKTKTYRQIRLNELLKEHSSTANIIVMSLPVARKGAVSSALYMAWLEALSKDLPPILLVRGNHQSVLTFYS

[6] = system: rat hippocampal slices; conditions: afterdischarge, high-K+, zero-magnesium, 4-AP, bicuculline, zero-calcium models
[7] = system: neocortex; conditions: intravenously administered, human patients
[8] = system: adults with refractory epilepsy
[9] = system: glial cell

Structure (SMILES) | effect on conditioned anxiety [1] | effect on kainic acid status [2] | effect on sound-triggered seizures [3] | blocking epileptiform activity (focal bicuculline or 4-AP) and stimulation-evoked afterdischarges [4] | NKCC1 antagonist potency and specificity relative to furosemide [5] | affinity for NKCC1 over KCC2 [5] | effect on epileptiform activity [6] | effect on interictal spiking and stimulation-evoked afterdischarges [7] | effect on seizure frequency [8] | effect on activity-driven glial cell swelling [9]
CCCCNc1cc(C(=O)O)cc(S(N)(=O)=O)c1Oc1ccccc1 [bumetanide] | significantly reduce conditioned anxiety | more potent than furosemide | more potent than furosemide | more potent than furosemide | more potent and specific antagonist than furosemide | significantly greater affinity for NKCC1 over KCC2 |  |  |  | 
NS(=O)(=O)c1cc(C(=O)O)c(NCc2ccco2)cc1Cl [furosemide] | significantly reduce conditioned anxiety |  | prevented sound-triggered seizures |  |  | significantly greater affinity for NKCC1 over KCC2 | block epileptiform activity | blocked spontaneously occurring interictal spiking and stimulation-evoked afterdischarges | significantly reduced seizure frequency | block activity-driven glial cell swelling
